Assays:
[1] = system: Ba/F3 CD74-ROS1 non mutant; experiment: Antiproliferation assay (Alamar Blue, 72 h); assay type: cell-based, mouse; conditions: Mus musculus, BaF3, 72 h, Ba/F3 cells, cell growth inhibition
Source text: (§1) To assess targeted degradation of ROS1 fusion proteins, we first established a mouse pro-B cell line Ba/F3 as a model expressing the CD74-ROS1 oncogene or CD74-ROS1 with clinically observed secondary/tertiary mutations. The Ba/F3 cell line is dependent on interleukin-3 for survival and proliferation. Upon transduction of oncogenic ROS1, Ba/F3 cells become independent of interleukin-3 but dependent on the transduced driver gene.
(§2) Ba/F3 immortalized murine bone marrow–derived pro-B cells were obtained from Creative Biogene (Shirley, NY) and cultured in RPMI supplemented with 10% FBS and IL3 (0.5 ng/mL). Ba/F3 cells expressing ROS1 variants were maintained in RPMI supplemented with 10% FBS and puromycin (0.7 mg/mL). […] Each compound was dissolved in DMSO and serially diluted in RPMI for cell culture experiments.
(§3) To assess the 72 h effect of drug treatment on cell proliferation, 2000 to 3000 cells were plated in replicates of three in 96-well plates. The plates were placed in an incubator at 37 °C, 5% CO2 for 72 h. Following drug treatments, the cells were incubated with the Alamar Blue Assay reagent (BioRad), 5 μL each well for 4 h at 37 °C and 5% CO2. Luminescence was measured on a multiplate reader and analyzed. […] IC50 values were determined using a nonlinear regression model with a sigmoidal dose response in GraphPad. The data were collected based on triplicate experiments, and presented as mean ± SD.
(§4) The resulting virus was used to infect Ba/F3 cells. After retroviral infection, Ba/F3 cells were selected by incubation with puromycin (0.7 mg/mL) for 2 weeks. For Ba/F3 cells infected by the CD74–ROS1 variants, IL3 was withdrawn from the culture medium at least 2 weeks before the experiments.

Ba/F3 ROS1-G2032R = experiment: Antiproliferation assay; assay type: cell-based, mouse; conditions: Mus musculus, BaF3; Ba/F3 cells, cell growth inhibition, 72 h
Source text: as §1, §2, §3, §4

ROS1 = ROS1 degradation in Ba/F3 cells (WES immunoblotting); assay type: cell-based; conditions: for DC50: concentration needed to reduce ROS1 protein by 50%, Ba/F3 cells; for Dmax (%) (ROS1): maximal degradation of ROS1 in Ba/F3 cells
Procedure: Protein levels were analyzed using a WES instrument according to the WES User Guide from ProteinSimple in duplicate experiments. The samples were mixed with the fluorescent 5 master mix (ProteinSimple) and then heated at 95 °C for 5 min. Boiled samples, biotinylated protein ladder, antibody diluent, Streptavidin-HRP, primary antibodies, ProteinSimple horseradish peroxidase conjugated antirabbit or antimouse secondary antibodies, luminol-peroxide, and wash buffer were loaded into the WES plate (Wes 12–230 kDa Prefilled Plates with Split Buffer, ProteinSimple). The plates and capillary cartridges were loaded into the WES instrument, and protein separation, antibody incubation, and imaging were performed according to manufacturer’s instructions. Compass software (ProteinSimple) was used to acquire the data and to generate the virtual blot image reconstruction and chemiluminescence signal intensity electropherograms. […] Protein levels are expressed as the AUC of the peak chemiluminescence intensity. Antibodies against phospho-ROS1(Tyr2274/2334) (E8F5J), ROS1 (D4D6(R)) were obtained from Cell Signaling Technology.

SMILES | IC50 [1] [nM] | IC50 (Ba/F3 ROS1-G2032R) [nM] | DC50 (ROS1) [nM] | Dmax (%) (ROS1) (ROS1)
Cc1cc(Nc2ncc(Cl)c(Nc3ccccc3S(=O)(=O)C(C)C)n2)c(OC(C)C)cc1C1CCN(C2CCN(C3CN(c4ccc5c(c4)C(=O)N(C4CCC(=O)NC4=O)C5=O)C3)CC2)CC1 (centres unmarked) [8m, 5-(3-(4-(4-((5-Chloro-4-((2-(isopropylsulfonyl)phenyl)amino)pyrimidin-2-yl)amino)-5-isopropoxy-2-methylphenyl)-[1,4′-bipiperidin]-1′-yl)azetidin-1-yl)-2-(2,6-dioxopiperidin-3-yl)isoindoline-1,3-dione] | 39 ± 34 | 2770 ± 1080 | 35 | 92
Cc1cc(Nc2ncc(Cl)c(Nc3ccccc3S(=O)(=O)C(C)C)n2)c(OC(C)C)cc1C1CCN(C2CN(CC3CCN(c4ccc5c(c4)C(=O)N(C4CCC(=O)NC4=O)C5=O)CC3)C2)CC1 (centres unmarked) [8r, 5-(4-((3-(4-(4-((5-Chloro-4-((2-(isopropylsulfonyl)phenyl)amino)pyrimidin-2-yl)amino)-5-isopropoxy-2-methylphenyl)piperidin-1-yl)azetidin-1-yl)methyl)piperidin-1-yl)-2-(2,6-dioxopiperidin-3-yl)isoindoline-1,3-dione] | 72 ± 3 | > 10000 | 77 | 91
C[C@@H](Oc1cc(-c2cnn(C3CCN(c4ccc5c(c4)C(=O)N(C4CCC(=O)NC4=O)C5=O)CC3)c2)cnc1N)c1c(Cl)ccc(F)c1Cl (stereo partly drawn) [7e, 5-(4-(4-(6-Amino-5-((R)-1-(2,6-dichloro-3-fluorophenyl)ethoxy)pyridin-3-yl)-1H-pyrazol-1-yl)piperidin-1-yl)-2-(2,6-dioxopiperidin-3-yl)isoindoline-1,3-dione] | 155 ± 21 | 2910 ± 742 | 203 | 53
Cc1cc(Nc2ncc(Cl)c(Nc3ccccc3S(=O)(=O)C(C)C)n2)c(OC(C)C)cc1C1CCN(C2CCN(CCNc3cccc4c3C(=O)N(C3CCC(=O)NC3=O)C4=O)CC2)CC1 (centres unmarked) [8d, 4-((2-(4-(4-((5-Chloro-4-((2-(isopropylsulfonyl)phenyl)amino)pyrimidin-2-yl)amino)-5-isopropoxy-2-methylphenyl)-[1,4′-bipiperidin]-1′-yl)ethyl)amino)-2-(2,6-dioxopiperidin-3-yl)isoindoline-1,3-dione] | 183 ± 41 | 2560 ± 242 | 302 | 66
Cc1cc(Nc2ncc(Cl)c(Nc3ccccc3S(=O)(=O)C(C)C)n2)c(OC(C)C)cc1C1CCN(CCCNc2ccc3c(c2)C(=O)N(C2CCC(=O)NC2=O)C3=O)CC1 (centres unmarked) [8i, 5-((3-(4-(4-((5-Chloro-4-((2-(isopropylsulfonyl)phenyl)amino)pyrimidin-2-yl)amino)-5-isopropoxy-2-methylphenyl)piperidin-1-yl)propyl)amino)-2-(2,6-dioxopiperidin-3-yl)isoindoline-1,3-dione] | 93 ± 50 | 4710 ± 486 | 88 | 84
C[C@@H](Oc1cc(-c2cnn(C3CCN(CC4CN(c5cccc6c5C(=O)N(C5CCC(=O)NC5=O)C6=O)C4)CC3)c2)cnc1N)c1c(Cl)ccc(F)c1Cl (stereo partly drawn) [7b, 4-(3-((4-(4-(6-Amino-5-((R)-1-(2,6-dichloro-3-fluorophenyl)ethoxy)pyridin-3-yl)-1H-pyrazol-1-yl)piperidin-1-yl)methyl)azetidin-1-yl)-2-(2,6-dioxopiperidin-3-yl)isoindoline-1,3-dione] | 2700 ± 254 | > 5000 | > 1000 | <5
Cc1cc(Nc2ncc(Cl)c(Nc3ccccc3S(=O)(=O)C(C)C)n2)c(OC(C)C)cc1C1CCN(C2CCN(CCCNc3cccc4c3C(=O)N(C3CCC(=O)NC3=O)C4=O)CC2)CC1 (centres unmarked) [8e, 4-((3-(4-(4-((5-Chloro-4-((2-(isopropylsulfonyl)phenyl)amino)pyrimidin-2-yl)amino)-5-isopropoxy-2-methylphenyl)-[1,4′-bipiperidin]-1′-yl)propyl)amino)-2-(2,6-dioxopiperidin-3-yl)isoindoline-1,3-dione] | 562 ± 61 | > 10000 | 733 | 28
Cc1cc(Nc2ncc(Cl)c(Nc3ccccc3S(=O)(=O)C(C)C)n2)c(OC(C)C)cc1C1CCN(C2CN(CC3CN(c4ccc5c(c4)C(=O)N(C4CCC(=O)NC4=O)C5=O)C3)C2)CC1 (centres unmarked) [8q, 5-(3-((3-(4-(4-((5-Chloro-4-((2-(isopropylsulfonyl)phenyl)amino)pyrimidin-2-yl)amino)-5-isopropoxy-2-methylphenyl)piperidin-1-yl)azetidin-1-yl)methyl)azetidin-1-yl)-2-(2,6-dioxopiperidin-3-yl)isoindoline-1,3-dione] | 66 ± 6 | 6120 ± 4070 | 57 | 85
Cc1cc(Nc2ncc(Cl)c(Nc3ccccc3S(=O)(=O)C(C)C)n2)c(OC(C)C)cc1C1CCN(CCNc2cccc3c2C(=O)N(C2CCC(=O)NC2=O)C3=O)CC1 (centres unmarked) [8a, 4-((2-(4-(4-((5-Chloro-4-((2-(isopropylsulfonyl)phenyl)amino)pyrimidin-2-yl)amino)-5-isopropoxy-2-methylphenyl)piperidin-1-yl)ethyl)amino)-2-(2,6-dioxopiperidin-3-yl)isoindoline-1,3-dione] | 176 ± 31 | > 10000 | 225 | 58
C[C@@H](Oc1cc(-c2cnn(C3CCN(CCC4CCN(c5ccc6c(c5)C(=O)N(C5CCC(=O)NC5=O)C6=O)CC4)CC3)c2)cnc1N)c1c(Cl)ccc(F)c1Cl (stereo partly drawn) [7h, 5-(4-(2-(4-(4-(6-Amino-5-((R)-1-(2,6-dichloro-3-fluorophenyl)ethoxy)pyridin-3-yl)-1H-pyrazol-1-yl)piperidin-1-yl)ethyl)piperidin-1-yl)-2-(2,6-dioxopiperidin-3-yl)isoindoline-1,3-dione] | 842 ± 172 | > 5000 | > 1000 | 11
COc1cc(N2CCC(N3CCN(CC4CCN(c5ccc(C(=O)NC6CCC(=O)NC6=O)cc5)CC4)CC3)CC2)ccc1Nc1ncc(Cl)c(Nc2ccccc2P(C)(C)=O)n1 (centres unmarked) [9r, 4-(4-((4-(1-(4-((5-Chloro-4-((2-(dimethylphosphoryl)phenyl)amino)pyrimidin-2-yl)amino)-3-methoxyphenyl)piperidin-4-yl)piperazin-1-yl)methyl)piperidin-1-yl)-N-(2,6-dioxopiperidin-3-yl)benzamide] | 120 ± 39 | > 10000 | 123 | 28
Cc1cc(Nc2ncc(Cl)c(Nc3ccccc3S(=O)(=O)C(C)C)n2)c(OC(C)C)cc1C1CCN(C2CCN(c3ccc4c(c3)C(=O)N(C3CCC(=O)NC3=O)C4=O)CC2)CC1 (centres unmarked) [8j, 5-(4-(4-((5-Chloro-4-((2-(isopropylsulfonyl)phenyl)amino)pyrimidin-2-yl)amino)-5-isopropoxy-2-methylphenyl)-[1,4′-bipiperidin]-1′-yl)-2-(2,6-dioxopiperidin-3-yl)isoindoline-1,3-dione] | 39 ± 8 | 1530 ± 521 | 41 | 88
COc1cc(N2CCN(C3CCN(CC4CCN(c5ccc6c(c5)C(=O)N(C5CCC(=O)NC5=O)C6=O)CC4)CC3)CC2)ccc1Nc1ncc(Cl)c(Nc2ccccc2P(C)(C)=O)n1 (centres unmarked) [9h, 5-(4-((4-(4-(4-((5-Chloro-4-((2-(dimethylphosphoryl)phenyl)amino)pyrimidin-2-yl)amino)-3-methoxyphenyl)piperazin-1-yl)piperidin-1-yl)methyl)piperidin-1-yl)-2-(2,6-dioxopiperidin-3-yl)isoindoline-1,3-dione] | 21 ± 8 | 115 ± 12 | 34 | 85
C[C@@H](Oc1cc(-c2cnn(C3CCN(CC4CN(c5ccc6c(c5)C(=O)N(C5CCC(=O)NC5=O)C6=O)C4)CC3)c2)cnc1N)c1c(Cl)ccc(F)c1Cl (stereo partly drawn) [7f, 5-(3-((4-(4-(6-Amino-5-((R)-1-(2,6-dichloro-3-fluorophenyl)ethoxy)pyridin-3-yl)-1H-pyrazol-1-yl)piperidin-1-yl)methyl)azetidin-1-yl)-2-(2,6-dioxopiperidin-3-yl)isoindoline-1,3-dione] | 569 ± 73 | > 5000 | 622 | 24
